Non-standard residues stand in square brackets, D forms with d. Residues, ends and D or L forms follow the SMILES beside them. Groups on a side chain read outwards from the residue. *: point of attachment. DOTA = O=C(O)CN1CCN(CC(=O)O)CCN(CC(=O)*)CCN(CC(=O)O)CC1; dTyr(3-I) = N[C@H](Cc1ccc(O)c(I)c1)C(=O)O; 2Nal = N[C@@H](Cc1ccc2ccccc2c1)C(=O)O; dNMeOrn = CN[C@H](CCCN)C(=O)O; 4Abz = Nc1ccc(C(=O)O)cc1; dDap = NC[C@@H](N)C(=O)O
Tests used:
[1] = Biodistribution in Jurkat tumor-bearing CB-17 SCID mice; type: in vivo; parameters: tissue to tissue ratio at 1 h / tissue to tissue ratio / tissue to tissue ratio at 48 h: reference not given here; conditions: CB-17 SCID, mouse, in vivo, iv, total radioactivity
Summary of the method: (§1)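 Radioligand (125I, 177Lu, 99mTc, 18F or 68Ga label; roughly 0.5-20 MBq, 0.02-0.20 nmol) was injected intravenously via tail vein. Hosts were CB17-SCID mice with subcutaneous Jurkat tumors of 5-8 mm, 4-10 weeks post-inoculation. Dissected organs were weighed and counted in a γ-counter.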

[2] = tested on: Jurkat tumor-bearing CB-17 SCID mice; assay: as above; type: in vivo; parameters: tissue to tissue ratio at 1 h / tissue to tissue ratio / tissue to tissue ratio at 48 h: reference not given here; conditions: mouse, in vivo
Summary of the method: as §1

`C[C@@H](NC(=O)[C@@H](CCCNC(=N)N)NC(=O)[C@@H](CN)NC(=O)CN1CCN(CC(=O)O)CCN(CC(=O)O)CCN(CC(=O)O)CC1)C(=O)Nc1ccc(C(=O)NCCC[C@@H]2C(=O)N[C@@H](CCCNC(=N)N)C(=O)N[C@@H](Cc3ccc4ccccc4c3)C(=O)NCC(=O)N[C@H](Cc3ccc(O)c(I)c3)C(=O)N2C)cc1` [CXCR4-DOTA-4 [Lu]] (cyclo([dTyr(3-I)][dNMeOrn]([4Abz-dA-dR-dDap-DOTA])R[2Nal]G)) showed a tissue to tissue ratio [1] of 156, a tissue to tissue ratio at 1 h [1] of 3.6 and a tissue to tissue ratio at 48 h [1] of 362. It also gave a tissue uptake at 1 h ([1]; Tumor activity 1 h p.i.) of 6.19 %ID/g, a tissue uptake at 6 h ([1]; Tumor activity 6 h p.i.) of 7.78 %ID/g and a tissue uptake at 48 h ([1]; Tumor activity 48 h p.i.) of 7.23 %ID/g. It also gave a tissue uptake at 1 h ([1]; female, % iD/g Blood) of 1.72 %ID/g, a tissue uptake at 6 h ([1]; female, % iD/g Blood) of 0.05 %ID/g and a tissue uptake at 48 h ([1]; female, % iD/g Blood) of 0.02 %ID/g. For the same compound, the tissue uptake at 1 h ([1]; female, % iD/g Bone) was 1.07 %ID/g, the tissue uptake at 6 h ([1]; female, % iD/g Bone) was 0.57 %ID/g and the tissue uptake at 48 h ([1]; female, % iD/g Bone) was 1.47 %ID/g. The tissue uptake at 1 h ([1]; female, % iD/g Heart) was 1.13 %ID/g, the tissue uptake at 6 h ([1]; female, % iD/g Heart) was 0.22 %ID/g and the tissue uptake at 48 h ([1]; female, % iD/g Heart) was 0.21 %ID/g. The tissue uptake at 1 h ([1]; female, % iD/g Intestine) was 0.87 %ID/g, the tissue uptake at 6 h ([1]; female, % iD/g Intestine) was 0.82 %ID/g and the tissue uptake at 48 h ([1]; female, % iD/g Intestine) was 0.28 %ID/g. The tissue uptake at 1 h ([1]; female, % iD/g Kidney) was 14.4 %ID/g, the tissue uptake at 6 h ([1]; female, % iD/g Kidney) was 11.3 %ID/g and the tissue uptake at 48 h ([1]; female, % iD/g Kidney) was 5.31 %ID/g. It also gave a tissue uptake at 1 h ([1]; female, % iD/g Liver) of 19.2 %ID/g, a tissue uptake at 6 h ([1]; female, % iD/g Liver) of 20.5 %ID/g and a tissue uptake at 48 h ([1]; female, % iD/g Liver) of 21.7 %ID/g. For the same compound, the tissue uptake at 1 h ([1]; female, % iD/g Lung) was 3.69 %ID/g, the tissue uptake at 6 h ([1]; female, % iD/g Lung) was 0.6 %ID/g and the tissue uptake at 48 h ([1]; female, % iD/g Lung) was 0.47 %ID/g. The tissue uptake at 1 h ([1]; female, % iD/g Muscle) was 0.3 %ID/g, the tissue uptake at 6 h ([1]; female, % iD/g Muscle) was 0.07 %ID/g and the tissue uptake at 48 h ([1]; female, % iD/g Muscle) was 0.05 %ID/g. For the same compound, the tissue uptake at 1 h ([1]; female, % iD/g Pancreas) was 0.52 %ID/g, the tissue uptake at 6 h ([1]; female, % iD/g Pancreas) was 0.16 %ID/g and the tissue uptake at 48 h ([1]; female, % iD/g Pancreas) was 0.24 %ID/g. For the same compound, the tissue uptake at 1 h ([1]; female, % iD/g Spleen) was 4.57 %ID/g, the tissue uptake at 6 h ([1]; female, % iD/g Spleen) was 2.68 %ID/g and the tissue uptake at 48 h ([1]; female, % iD/g Spleen) was 3.63 %ID/g. The tissue uptake at 1 h ([1]; female, % iD/g Stomach) was 1.35 %ID/g, the tissue uptake at 6 h ([1]; female, % iD/g Stomach) was 0.41 %ID/g and the tissue uptake at 48 h ([1]; female, % iD/g Stomach) was 0.23 %ID/g. It also gave a tissue uptake at 1 h ([1]; female, % iD/g Tumor) of 6.19 %ID/g, a tissue uptake at 6 h ([1]; female, % iD/g Tumor) of 7.78 %ID/g and a tissue uptake at 48 h ([1]; female, % iD/g Tumor) of 7.23 %ID/g. For the same compound, the “Calculated tumor retention 6 h compared to the 1 h-value” [2] was 126% and the “Calculated tumor retention 48 h compared to the 1 h-value” [2] was 117%.

From patent publication US20250288704A1, “CXCR4-LIGANDS FOR DIAGNOSTIC AND THERAPEUTIC USE AND PRECURSORS THEREOF” (priority 2021, published 2025)
